Reference: US12723063B2, “GIPR-agonist compounds” (Eli Lilly and Company, priority 2019, dated 2026)
*1 amine or outer side, *2 acyl side, *3 side chain or, on linkers, in order; H or OH if unused. Where a SMILES comes first, the peptide text is derived from it. Side-chain parts run from the residue outwards. [ ]: non-standard residue; d: D form. The star is where a group is joined. C20 diacid = O=C(O)CCCCCCCCCCCCCCCCCCC(=O)*; αMePhe(2-F) = C[C@](N)(Cc1ccccc1F)C(=O)O; γGlu = O=C(O)[C@H](CCC(=O)[*:2])N[*:1]; αMeF = C[C@](N)(Cc1ccccc1)C(=O)O; 4Pal = N[C@@H](Cc1ccncc1)C(=O)O; αMeL = CC(C)C[C@](C)(N)C(=O)O; AEEA = NCCOCCOCC(=O)O; Aib = CC(C)(N)C(=O)O

Assays:
[1] = target: T1, human GLP-1R (Homo sapiens, UniProt P43220); test: [125I]-GLP-1 binding, SPA with WGA beads, 0.1% bacitracin; settings: geometric mean, read-out: hGLP1R Ki
T1 construct: expressed in transfected cells; crude membranes
Summary of the method: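 Binding buffer was 25 mM HEPES pH 7.4 with 2.5 mM CaCl2, 1 mM MgCl2, 0.1% (w/v) bacitracin, 0.003% Tween-20 and EDTA-free protease inhibitors. Four-parameter regression gave IC50, converted to Ki (geometric mean, SEM, n independent days).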

[2] = target: T2, human GIPR (Homo sapiens, UniProt P48546); test: [125I]-GIP binding, SPA with WGA beads, 0.1% bacitracin; settings: geometric mean, read-out: hGIPR Ki
T2 construct: expressed in transfected cells; crude membranes
T2 sequence (P48546 22-466): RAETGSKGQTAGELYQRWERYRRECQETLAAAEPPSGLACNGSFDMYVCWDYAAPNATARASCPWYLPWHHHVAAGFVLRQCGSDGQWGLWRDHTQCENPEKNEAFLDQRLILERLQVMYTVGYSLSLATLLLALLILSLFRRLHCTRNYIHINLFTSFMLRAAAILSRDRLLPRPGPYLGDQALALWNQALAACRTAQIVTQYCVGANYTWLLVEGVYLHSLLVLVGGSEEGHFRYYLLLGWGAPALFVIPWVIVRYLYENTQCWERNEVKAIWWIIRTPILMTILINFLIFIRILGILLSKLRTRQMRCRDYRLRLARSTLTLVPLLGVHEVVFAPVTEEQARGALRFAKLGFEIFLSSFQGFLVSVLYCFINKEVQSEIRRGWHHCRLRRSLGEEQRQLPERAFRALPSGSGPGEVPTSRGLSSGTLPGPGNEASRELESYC
Summary of the method: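 Ki values are geometric means (SEM, n independent days), derived from four-parameter nonlinear regression of IC50. Membranes came from hGIPR-expressing CHO cells.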

[3] = target: T3, human GcgR (Homo sapiens, UniProt P47871); test: [125I]-Glucagon binding, SPA with WGA beads, 0.1% bacitracin; settings: geometric mean, read-out: hGcgR Ki
T3 construct: expressed in transfected cells; crude membranes
Summary of the method: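 SPA competition binding with WGA beads on crude membranes from HEK293 cells stably expressing hGcgR. Buffer: 25 mM HEPES pH 7.4, 2.5 mM CaCl2, 1 mM MgCl2, 0.1% bacitracin, 0.003% Tween-20; 10-point 3-fold dilutions, NSB with 1 μM Gcg.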

T3 sequence (P47871 26-477): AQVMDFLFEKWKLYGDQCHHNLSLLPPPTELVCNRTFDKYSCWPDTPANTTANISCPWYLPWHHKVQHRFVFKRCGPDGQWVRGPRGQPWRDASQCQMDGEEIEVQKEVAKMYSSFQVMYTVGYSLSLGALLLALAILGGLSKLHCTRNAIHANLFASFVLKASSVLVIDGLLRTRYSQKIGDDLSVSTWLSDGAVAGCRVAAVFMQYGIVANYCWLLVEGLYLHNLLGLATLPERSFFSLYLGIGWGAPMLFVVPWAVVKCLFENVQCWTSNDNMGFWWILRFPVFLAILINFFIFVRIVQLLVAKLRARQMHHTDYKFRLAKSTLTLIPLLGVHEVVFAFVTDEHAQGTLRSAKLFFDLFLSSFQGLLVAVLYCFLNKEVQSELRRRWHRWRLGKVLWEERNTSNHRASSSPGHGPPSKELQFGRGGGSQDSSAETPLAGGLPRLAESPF
T1 sequence (P43220 24-463): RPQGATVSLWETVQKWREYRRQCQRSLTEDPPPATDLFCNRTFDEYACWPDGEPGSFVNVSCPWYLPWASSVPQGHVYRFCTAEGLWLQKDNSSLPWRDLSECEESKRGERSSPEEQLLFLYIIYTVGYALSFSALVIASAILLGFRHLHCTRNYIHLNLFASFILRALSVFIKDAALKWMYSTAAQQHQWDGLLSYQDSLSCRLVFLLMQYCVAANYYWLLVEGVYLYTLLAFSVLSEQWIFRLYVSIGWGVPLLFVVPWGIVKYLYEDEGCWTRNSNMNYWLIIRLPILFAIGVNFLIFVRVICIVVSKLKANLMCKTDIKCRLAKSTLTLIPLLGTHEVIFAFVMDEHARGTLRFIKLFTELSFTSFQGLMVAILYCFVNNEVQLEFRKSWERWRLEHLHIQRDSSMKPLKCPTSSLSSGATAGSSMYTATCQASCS

Compound	Ki [1] [nM]	Ki [2] [nM]	Ki [3] [nM]
CC[C@H](C)[C@H](NC(=O)[C@H](CO)NC(=O)[C@H](Cc1ccc(O)cc1)NC(=O)[C@H](CC(=O)O)NC(=O)[C@H](CO)NC(=O)[C@@H](NC(=O)[C@](C)(Cc1ccccc1F)NC(=O)[C@@H](NC(=O)CNC(=O)[C@H](CCC(=O)O)NC(=O)C(C)(C)NC(=O)[C@@H](N)Cc1ccc(O)cc1)[C@@H](C)O)[C@@H](C)CC)C(=O)N[C@@H](C)C(=O)N[C@@H](CC(C)C)C(=O)N[C@@H](CC(=O)O)C(=O)N[C@@H](CCCCN)C(=O)N[C@@H](CCCCNC(=O)COCCOCCNC(=O)COCCOCCNC(=O)CC[C@H](NC(=O)CCCCCCCCCCCCCCCCCCC(=O)O)C(=O)O)C(=O)N[C@@H](Cc1c[nH]cn1)C(=O)N[C@@H](CCC(N)=O)C(=O)NC(C)(C)C(=O)N[C@@H](CCC(=O)O)C(=O)N[C@@H](Cc1ccccc1)C(=O)N[C@H](C(=O)N[C@@H](CC(N)=O)C(=O)N[C@@H](Cc1ccc(O)cc1)C(=O)N[C@@H](CC(C)C)C(=O)N[C@@H](CC(C)C)C(=O)N[C@@H](C)C(=O)N[C@H](C(=O)NCC(=O)N1CCC[C@H]1C(=O)N[C@@H](CO)C(=O)N[C@@H](CO)C(=O)NCC(=O)N[C@@H](C)C(=O)N1CCC[C@H]1C(=O)N1CCC[C@H]1C(=O)N1CCC[C@H]1C(=O)N[C@@H](CO)C(N)=O)[C@@H](C)O)C(C)C [Example 34] (H-Y[Aib]EGT[αMePhe(2-F)]ISDYSIALDKK([AEEA-AEEA-γGlu-C20 diacid])HQ[Aib]EFVNYLLATGPSSGAPPPS-NH2)	201	0.034	143
CC[C@H](C)[C@H](NC(=O)[C@H](Cc1ccccc1)NC(=O)[C@@H](NC(=O)CNC(=O)[C@H](CCC(=O)O)NC(=O)C(C)(C)NC(=O)[C@@H](N)Cc1ccc(O)cc1)[C@@H](C)O)C(=O)N[C@@H](CO)C(=O)N[C@@H](CC(=O)O)C(=O)N[C@@H](Cc1ccc(O)cc1)C(=O)N[C@@H](CO)C(=O)N[C@H](C(=O)N[C@@](C)(CC(C)C)C(=O)N[C@@H](CC(C)C)C(=O)N[C@@H](CC(=O)O)C(=O)N[C@@H](CCCCN)C(=O)N[C@@H](CCCCNC(=O)COCCOCCNC(=O)COCCOCCNC(=O)CC[C@H](NC(=O)CCCCCCCCCCCCCCCCCCC(=O)O)C(=O)O)C(=O)N[C@@H](Cc1c[nH]cn1)C(=O)N[C@@H](CCC(N)=O)C(=O)NC(C)(C)C(=O)N[C@@H](CC(=O)O)C(=O)N[C@@H](Cc1ccccc1)C(=O)N[C@H](C(=O)N[C@@H](CCC(=O)O)C(=O)N[C@@H](Cc1ccncc1)C(=O)N[C@@H](CC(C)C)C(=O)N[C@@H](CC(C)C)C(=O)N[C@@H](CCC(=O)O)C(=O)NCC(=O)NCC(=O)N1CCC[C@H]1C(=O)N[C@@H](CO)C(=O)N[C@@H](CO)C(=O)NCC(=O)N[C@@H](C)C(=O)N1CCC[C@H]1C(=O)N1CCC[C@H]1C(=O)N1CCC[C@H]1C(=O)N[C@@H](CO)C(N)=O)C(C)C)[C@@H](C)CC [Example 47] (H-Y[Aib]EGTFISDYSI[αMeL]LDKK([AEEA-AEEA-γGlu-C20 diacid])HQ[Aib]DFVE[4Pal]LLEGGPSSGAPPPS-NH2)	320	0.0452	175
CC[C@H](C)[C@H](NC(=O)[C@H](CO)NC(=O)[C@H](Cc1ccc(O)cc1)NC(=O)[C@H](CC(=O)O)NC(=O)[C@H](CO)NC(=O)[C@@H](NC(=O)[C@](C)(Cc1ccccc1)NC(=O)[C@@H](NC(=O)CNC(=O)[C@H](CCC(=O)O)NC(=O)C(C)(C)NC(=O)[C@@H](N)Cc1ccc(O)cc1)[C@@H](C)O)[C@@H](C)CC)C(=O)N[C@@H](C)C(=O)N[C@@H](CC(C)C)C(=O)N[C@@H](CC(=O)O)C(=O)N[C@@H](CCCCN)C(=O)N[C@@H](CCCCNC(=O)COCCOCCNC(=O)COCCOCCNC(=O)CC[C@H](NC(=O)CCCCCCCCCCCCCCCCCCC(=O)O)C(=O)O)C(=O)N[C@@H](Cc1c[nH]cn1)C(=O)N[C@@H](CCC(N)=O)C(=O)NC(C)(C)C(=O)N[C@@H](CC(=O)O)C(=O)N[C@@H](Cc1ccccc1)C(=O)N[C@H](C(=O)N[C@@H](CCC(=O)O)C(=O)N[C@@H](Cc1ccncc1)C(=O)N[C@@H](CC(C)C)C(=O)N[C@@H](CC(C)C)C(=O)N[C@@H](CCC(=O)O)C(=O)N[C@@H](CCC(N)=O)C(=O)NCC(=O)N1CCC[C@H]1C(=O)N[C@@H](CO)C(=O)N[C@@H](CO)C(=O)NCC(=O)N[C@@H](C)C(=O)N1CCC[C@H]1C(=O)N1CCC[C@H]1C(=O)N1CCC[C@H]1C(=O)N[C@@H](CO)C(N)=O)C(C)C [Example 42] (H-Y[Aib]EGT[αMeF]ISDYSIALDKK([AEEA-AEEA-γGlu-C20 diacid])HQ[Aib]DFVE[4Pal]LLEQGPSSGAPPPS-NH2)	563	0.0392	99.1
CC[C@H](C)[C@H](NC(=O)[C@H](Cc1ccccc1)NC(=O)[C@@H](NC(=O)CNC(=O)[C@H](CCC(=O)O)NC(=O)C(C)(C)NC(=O)[C@@H](N)Cc1ccc(O)cc1)[C@@H](C)O)C(=O)N[C@@H](CO)C(=O)N[C@@H](CC(=O)O)C(=O)N[C@@H](Cc1ccc(O)cc1)C(=O)N[C@@H](CO)C(=O)N[C@H](C(=O)N[C@@](C)(CC(C)C)C(=O)N[C@@H](CC(C)C)C(=O)N[C@@H](CC(=O)O)C(=O)N[C@@H](CCCCN)C(=O)N[C@@H](CCCCNC(=O)COCCOCCNC(=O)COCCOCCNC(=O)CC[C@H](NC(=O)CCCCCCCCCCCCCCCCCCC(=O)O)C(=O)O)C(=O)N[C@@H](Cc1c[nH]cn1)C(=O)N[C@@H](CCC(N)=O)C(=O)NC(C)(C)C(=O)N[C@@H](CCC(=O)O)C(=O)N[C@@H](Cc1ccccc1)C(=O)N[C@H](C(=O)N[C@@H](CCC(=O)O)C(=O)N[C@@H](Cc1ccncc1)C(=O)N[C@@H](CC(C)C)C(=O)N[C@@H](CC(C)C)C(=O)N[C@@H](C)C(=O)NCC(=O)NCC(=O)N1CCC[C@H]1C(=O)N[C@@H](CO)C(=O)N[C@@H](CO)C(=O)NCC(=O)N[C@@H](C)C(=O)N1CCC[C@H]1C(=O)N1CCC[C@H]1C(=O)N1CCC[C@H]1C(=O)N[C@@H](CO)C(N)=O)C(C)C)[C@@H](C)CC [Example 52]	128	0.0372	114
CC[C@H](C)[C@H](NC(=O)[C@H](CO)NC(=O)[C@H](Cc1ccc(O)cc1)NC(=O)[C@H](CC(=O)O)NC(=O)[C@H](CO)NC(=O)[C@@H](NC(=O)[C@](C)(Cc1ccccc1)NC(=O)[C@@H](NC(=O)CNC(=O)[C@H](CCC(=O)O)NC(=O)C(C)(C)NC(=O)[C@@H](N)Cc1ccc(O)cc1)[C@@H](C)O)[C@@H](C)CC)C(=O)N[C@@H](C)C(=O)N[C@@H](CC(C)C)C(=O)N[C@@H](CC(=O)O)C(=O)N[C@@H](CCCCN)C(=O)N[C@@H](CCCCNC(=O)COCCOCCNC(=O)COCCOCCNC(=O)CC[C@H](NC(=O)CCCCCCCCCCCCCCCCCCC(=O)O)C(=O)O)C(=O)N[C@@H](Cc1c[nH]cn1)C(=O)N[C@@H](CCC(N)=O)C(=O)NC(C)(C)C(=O)N[C@@H](CC(=O)O)C(=O)N[C@@H](Cc1ccccc1)C(=O)N[C@H](C(=O)N[C@@H](CCC(=O)O)C(=O)N[C@@H](Cc1ccncc1)C(=O)N[C@@H](CC(C)C)C(=O)N[C@@H](CC(C)C)C(=O)N[C@@H](CCC(=O)O)C(=O)NCC(=O)NCC(=O)N1CCC[C@H]1C(=O)N[C@@H](CO)C(=O)N[C@@H](CO)C(=O)NCC(=O)N[C@@H](C)C(=O)N1CCC[C@H]1C(=O)N1CCC[C@H]1C(=O)N1CCC[C@H]1C(=O)N[C@@H](CO)C(N)=O)C(C)C [Example 44] (H-Y[Aib]EGT[αMeF]ISDYSIALDKK([AEEA-AEEA-γGlu-C20 diacid])HQ[Aib]DFVE[4Pal]LLEGGPSSGAPPPS-NH2)	209	0.059	50
CC[C@H](C)[C@H](NC(=O)[C@H](Cc1ccccc1)NC(=O)[C@@H](NC(=O)CNC(=O)[C@H](CCC(=O)O)NC(=O)C(C)(C)NC(=O)[C@@H](N)Cc1ccc(O)cc1)[C@@H](C)O)C(=O)N[C@@H](CO)C(=O)N[C@@H](CC(=O)O)C(=O)N[C@@H](Cc1ccc(O)cc1)C(=O)N[C@@H](CO)C(=O)N[C@H](C(=O)N[C@@](C)(CC(C)C)C(=O)N[C@@H](CC(C)C)C(=O)N[C@@H](CC(=O)O)C(=O)N[C@@H](CCCCN)C(=O)N[C@@H](CCCCNC(=O)COCCOCCNC(=O)COCCOCCNC(=O)CC[C@H](NC(=O)CCCCCCCCCCCCCCCCC(=O)O)C(=O)O)C(=O)N[C@@H](Cc1c[nH]cn1)C(=O)N[C@@H](CCC(N)=O)C(=O)NC(C)(C)C(=O)N[C@@H](CC(=O)O)C(=O)N[C@@H](Cc1ccccc1)C(=O)N[C@H](C(=O)N[C@@H](CCC(=O)O)C(=O)N[C@@H](Cc1ccncc1)C(=O)N[C@@H](CC(C)C)C(=O)N[C@@H](CC(C)C)C(=O)N[C@@H](C)C(=O)NCC(=O)NCC(=O)N1CCC[C@H]1C(=O)N[C@@H](CO)C(=O)N[C@@H](CO)C(=O)NCC(=O)N[C@@H](C)C(=O)N1CCC[C@H]1C(=O)N1CCC[C@H]1C(=O)N1CCC[C@H]1C(=O)N[C@@H](CO)C(N)=O)C(C)C)[C@@H](C)CC [Example 49]	596	0.0512	> 960
